In ChEMBL document CHEMBL1126972, “Synthesis of 2-imidazolidinylidenepropanedinitrile derivatives as stimulators of gastrointestinal motility” (J Med Chem, 1993):
The source made the active and inactive calls. The calls are words filed in the database; no cut-off is given here.

How the values were obtained:
[1] = species: Cavia porcellus; assay: In vitro gastrointestinal motility enhancing activity was determined by potentiating action on electrically evoked contraction of the isolated guinea pig ileum; the maximum contraction was not achieved to 30%; assay type: functional
[2] = molecular target: Acetylcholinesterase (Homo sapiens) (UniProt P22303); conditions: Cavia porcellus; Ileum
[3] = species: Cavia porcellus; assay: In vitro gastrointestinal motility enhancing activity was determined by potentiating action on electrically evoked contraction of the isolated guinea pig ileum; no effect; assay type: functional
[4] = species: Cavia porcellus; assay: In vitro gastrointestinal motility enhancing activity was determined by potentiating action on electrically evoked contraction of the isolated guinea pig ileum;No effect.; assay type: functional

Acetylcholinesterase (Homo sapiens), sequence (P22303 whole entry): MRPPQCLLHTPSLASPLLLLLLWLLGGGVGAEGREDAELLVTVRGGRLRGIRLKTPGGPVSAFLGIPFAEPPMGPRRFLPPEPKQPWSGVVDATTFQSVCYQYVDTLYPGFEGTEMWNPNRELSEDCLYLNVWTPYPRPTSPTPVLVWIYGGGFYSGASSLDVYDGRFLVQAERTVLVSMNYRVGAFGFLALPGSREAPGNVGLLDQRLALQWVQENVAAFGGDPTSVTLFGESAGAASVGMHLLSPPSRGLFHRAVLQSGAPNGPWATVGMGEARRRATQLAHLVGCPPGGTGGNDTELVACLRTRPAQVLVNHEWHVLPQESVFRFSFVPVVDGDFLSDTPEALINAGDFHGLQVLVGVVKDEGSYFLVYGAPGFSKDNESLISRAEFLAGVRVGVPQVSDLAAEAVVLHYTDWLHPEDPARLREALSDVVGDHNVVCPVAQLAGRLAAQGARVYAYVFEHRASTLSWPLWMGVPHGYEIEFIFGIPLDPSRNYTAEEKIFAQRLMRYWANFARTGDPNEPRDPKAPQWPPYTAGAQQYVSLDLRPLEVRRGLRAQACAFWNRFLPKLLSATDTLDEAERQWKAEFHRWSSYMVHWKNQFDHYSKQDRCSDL

Compound | EC30 [2] [nM] | other results
CN(C)C(=O)Oc1cccc([N+](C)(C)C)c1 |  | EC30 [1]: inactive
CC1CCCN(Cc2ccc(CNCCN3CCNC3=C(C#N)C#N)o2)C1 (stereo not given) | 410 | 
N#CC(C#N)=C1NCCN1CCNCc1ccc(CN2CCCC(O)C2)o1 (stereo not given) | 460 | 
COC1CCCN(Cc2ccc(CNCCN3CCNC3=C(C#N)C#N)o2)C1 (stereo not given) | 1400 | 
CC1CCCCN1Cc1ccc(CNCCN2CCNC2=C(C#N)C#N)o1 (stereo not given) | 910 | 
CNC(NCCNCc1ccc(CN(C)C)o1)=C(C#N)C#N | 2100 | 
CCN(CC)Cc1ccc(CNCCN2CCNC2=C(C#N)C#N)o1 | 1000 | 
N#CC(C#N)=C1NCCN1CCNCc1ccc(CN2CCCCCC2)o1 | 320 | 
N#CC(C#N)=C1NCCN1CCNCc1ccc(CN2CC=CCC2)o1 | 81 | 
CNC(NCCNCc1ccc(CN2CCCC2)o1)=C(C#N)C#N | 2000 | 
CN(C)Cc1ccc(CNCCN2CCN/C2=C\[N+](=O)[O-])o1 |  | EC30 [3]: inactive
CNC(NCCNCc1ccc(CN(C(C)C)C(C)C)o1)=C(C#N)C#N | 8500 | 
CC1CCN(Cc2ccc(CNCCN3CCNC3=C(C#N)C#N)o2)CC1 | 260 | 
CNC(NCCNCc1ccc(COC)o1)=C(C#N)C#N |  | EC30 [3]: inactive
CC1CCCC(C)N1Cc1ccc(CNCCN2CCNC2=C(C#N)C#N)o1 (stereo not given) |  | EC30 [3]: inactive
N#CC(C#N)=C1NCCN1CCNCc1ccc(CN2CCOCC2)o1 | 13000 | 
CCN(CC)CCNC(=O)c1cc(Cl)c(N)cc1OC | 430 | 
N#CC(C#N)=C1NCCN1CCNCc1ccc(CN2CCC(O)CC2)o1 | 430 | 
N#CC(C#N)=C1NCCN1CCNCc1ccc(CN2CCCCC2)o1 | 16 | 
CCN(C)Cc1ccc(CNCCN2CCNC2=C(C#N)C#N)o1 | 540 | 
N#CC(C#N)=C1NCCN1CCNCc1ccc(CN2CCCC2)o1 | 310 | 
C/N=c1\c(O)c(O)\c1=N/CCNCc1ccc(CN2CCCCC2)o1 | 7200 | 
COc1cc(N)c(Cl)cc1C(=O)NCCNCc1ccc(CN(C)C)o1 |  | EC30 [4]: No effect
CNC(=C[N+](=O)[O-])NCCSCc1ccc(CN(C)C)o1 | 1800 | 
CN(C)Cc1ccc(CNCCN2CCNC2=C(C#N)C#N)o1 | 370 | 
CNC(NCCNCc1ccc(CN2CCCCC2)o1)=C(C#N)C#N | 4100 | 
N#CC(C#N)=C1NCCN1CCNCc1ccc(CN2CCSCC2)o1 | 2900 | 
CN1CCN(Cc2ccc(CNCCN3CCNC3=C(C#N)C#N)o2)CC1 | 1700 | 
COC1CCN(Cc2ccc(CNCCN3CCNC3=C(C#N)C#N)o2)CC1 | 11000 | 
N#CC(C#N)=C1Nc2ccccc2N1CCNCc1ccc(CN2CCCCC2)o1 |  | EC30 [3]: inactive
